Earlier results, collected in PubChem BioAssay AID1259410 (Chemical Carcinogenesis Research Information System (CCRIS), 2018).

Tested on: rodent tumor promotion studies, tumor incidence
Assay: CCRIS tumor promotion studies
[1] = Carcinogen: 7,12-DIMETHYLBENZ(A)ANTHRACENE, Doses [Carcinogen]: TOP, Route [Carcinogen]: DERMAL, Route [Promoter]: DERMAL, Species: MOUSE, Strain/Sex: FEMALE

In the case of `S=C=NCCCCCCc1ccccc1`, the outcome (Carcinogen: AZOXYMETHANE, 25843-45-2, Doses [Carcinogen]: 15 MG/KG BW 1/WK FOR 2 WK, Doses [Promoter]: 0, 640 PPM IN DIET BEGINNING 2 WK PRIOR TO CARCINOGEN DOSE (STUDY DURATION: 56 WK), Route [Carcinogen]: SUBCUTANEOUS, Route [Promoter]: ORAL, Species: RAT, Strain/Sex: F344/MALE) is given as “intestine: adenocarcinoma” and the outcome (Carcinogen: N-METHYL-N-BENZYLNITROSAMINE, 937-40-6, Doses [Carcinogen]: 0.5 MG/KG BW 1/WK FOR 15 WK, Doses [Promoter]: 0, 1, 2.5 UMOL/G DIET FOR DURATION OF STUDY BEGINNING 2 WK PRIOR TO CARCINOGEN TREATMENT (STUDY DURATION: 21 WK), Doses [Promoter]: 0, 1, 2.5 UMOL/G DIET FOR DURATION OF STUDY BEGINNING 2 WK PRIOR TO CARCINOGEN TREATMENT (STUDY DURATION: 21 WK), Route [Carcinogen]: SUBCUTANEOUS, Route [Promoter]: ORAL, Species: RAT, Strain/Sex: F344/MALE) is given as “esophagus: tumor”.
In the case of `O=C1[C@H]2CC=CC[C@H]2C(=O)N1SC(Cl)(Cl)Cl`, the outcome (Carcinogen: DIETHYLNITROSAMINE, 55-18-5, N-METHYL-N-NITROSOUREA, 684-93-5, N-BIS(2-HYDROXYPROPYL)NITROSAMINE, 53609-64-6, Carcinogen: DIETHYLNITROSAMINE, 55-18-5, N-METHYL-N-NITROSOUREA, 684-93-5, N-BIS(2-HYDROXYPROPYL)NITROSAMINE, 53609-64-6, Doses [Carcinogen]: 100 MG/KG DEN ONCE THEN 20 MG/KG MNU 2/WK FOR 2 WK FOLLOWED BY 0.1% DHPN IN DRINKING WATER FOR 2 WK, Doses [Promoter]: 0, 4000 PPM IN DIET BEGINNING POST CARCINOGEN TREATMENT AND CONTINUING FOR 16 WK (STUDY DURATION: 20 WK), Route [Carcinogen]: INTRAPERITONEAL, INTRAPERITONEAL, ORAL, Route [Carcinogen]: INTRAPERITONEAL, INTRAPERITONEAL, ORAL, Route [Promoter]: ORAL, Species: RAT, Strain/Sex: F344/MALE) is listed as “kidney: adenoma”.
For `CC1=C[C@H]2[C@@]3(O)[C@H](C)[C@@H](O)[C@]4(O)[C@H]([C@@H]3C=C(CO)C[C@]2(O)C1=O)C4(C)C`, the outcome (Carcinogen: 2-(ACETYLAMINO)FLUORINE, Doses [Carcinogen]: TRANS-PLACENTAL, Route [Carcinogen]: TRANS-PLACENTAL, Route [Promoter]: INTRAPERITONEAL, Species: MOUSE, Strain/Sex: C57BL/MALE,FEMALE) is given as “liver”, the outcome (Carcinogen: 7,12-DIMETHYLBENZ(A)ANTHRACENE, Doses [Carcinogen]: IG, Route [Carcinogen]: GAVAGE, Route [Promoter]: INTRAPERITONEAL, Species: RAT, Strain/Sex: FEMALE) is given as “mammary glands; hematopoietic system (leukemia, thymic)” and the outcome (Carcinogen: 7,12-DIMETHYLBENZ(A)ANTHRACENE, Doses [Carcinogen]: TOP, Route [Carcinogen]: DERMAL, Route [Promoter]: INTRAPERITONEAL, Species: MOUSE, Strain/Sex: FEMALE) is given as “hematopoietic system (leukemia, nonthymic)”. For the same compound, the outcome (Carcinogen: DIMETHYLNITROSAMINE, Doses [Carcinogen]: SC, Route [Carcinogen]: SUBCUTANEOUS, Route [Promoter]: INTRAPERITONEAL, Species: MOUSE, Strain/Sex: MALE,FEMALE) was “lung; liver”.
In the case of `Cc1ccc(C)c(O)c1`, the outcome [1] is given as “integumentary system (skin)”.
For `O=S(=O)(O)NC1CCCCC1`, the outcome (Carcinogen: METHYLNITROSOUREA, Doses [Carcinogen]: BLADDER IMP, Doses [Promoter]: IN DIET, Route [Carcinogen]: BLADDER IMPLANT, Route [Promoter]: ORAL, Species: RAT, Strain/Sex: WISTAR/FEMALE) is listed as “urinary bladder”.
For `Oc1ccc(Cl)cc1Cl`, the outcome [1] is listed as “integumentary system (skin)”.
In the case of `C#CCN(C)Cc1ccccc1`, the outcome (Carcinogen: AZOXYMETHANE, 25843-45-2, Doses [Carcinogen]: 7.4 MG/KG BW IN 0.9% SALINE 1/WK FOR 10 WK, Doses [Promoter]: 0, 50 MG/KG BW 1/2 D FOR 35 WK (STUDY DURATION: 35 WK), Route [Carcinogen]: SUBCUTANEOUS, Route [Promoter]: SUBCUTANEOUS, Species: RAT, Strain/Sex: WISTAR/MALE) is given as “colon: tumor”.
In the case of `CC(=O)OCC(CO)OC(C)=O` (configuration not stated), the outcome (Carcinogen: 4-Nitroquinoline 1-oxide, 56-57-5, Doses [Carcinogen]: 10 ppm in drinking water from wks 0-10, study duration 35 wk, Doses [Promoter]: 0, 2.75%, 5.5%, 11% in diet from wks 11-35, study duration 35 wks, Doses [Promoter]: 0, 2.75%, 5.5%, 11% in diet from wks 11-35, study duration 35 wks, Route [Carcinogen]: Oral, Route [Promoter]: Oral, Species: Rat, Strain/Sex: Sprague-Dawley/Male (30/Group)) is given as “tongue: squamous cell papillomas and carcinomas; oral cavity: squamous cell papi”, the outcome (Carcinogen: 7,12-Dimethylbenz(a)anthracene, 57-97-6, Doses [Carcinogen]: 100 ug in 100 ul acetone once at 6 wk of age, Doses [Promoter]: 0, 12, 30, 75 mg, 5 d/wk beginning 1 wk after carcinogen administration for 35 wk, study duration 36 wk, Route [Carcinogen]: Dermal, Route [Promoter]: Dermal, Species: Mouse, Strain/Sex: ICR/Female) is given as “skin: papillomas” and the outcome (Carcinogen: 7,12-Dimethylbenz(a)anthracene, 57-97-6, Doses [Carcinogen]: 100 ug in 100 ul acetone once at 6 wk of age, Doses [Promoter]: 0, 30, 75 mg, twice daily, 5 d/wk beginning 1 wk after carcinogen administration for 35 wk, study duration 36 wk, Route [Carcinogen]: Dermal, Route [Promoter]: Dermal, Species: Mouse, Strain/Sex: ICR/Female) is given as “skin: papillomas and squamous cell carcinomas”.
For `CC(C(=O)O)c1ccc(-c2ccccc2)c(F)c1` (configuration not stated), the outcome (Carcinogen: N-METHYL-N'-NITRO-N-NITROSOGUANIDINE, 70-25-7, Doses [Carcinogen]: 10 MG ADMINISTERED AS 3 D TREATMENT CYCLES FOLLOWED BY REST PERIODS FOR A TOTAL OF 6 CYCLES (TOTAL DOSE 180 MG DURING 40, Doses [Promoter]: 0.5 MG ADMINISTERED AS 3 D TREATMENT CYCLES FOLLOWED BY REST PERIODS ADMINISTERED CONCURRENTLY WITH CARCINOGEN DURING 40, Route [Carcinogen]: INTRAGASTRIC, Route [Promoter]: GAVAGE, Species: RAT, Strain/Sex: WISTAR/FEMALE) is listed as “stomach: adenocarcinoma; small intestine: adenocarcinoma”.
In the case of `COc1cc(NS(=O)(=O)c2ccc(N)cc2)nc(OC)n1`, the outcome (Carcinogen: Kojic acid, 501-30-4, Doses [Carcinogen]: 0.02, 0.2, 2% in diet for 8 wk before administration of promoter, Doses [Carcinogen]: 0.02, 0.2, 2% in diet for 8 wk before administration of promoter, Doses [Promoter]: 0.1% in drinking water from 8 wk to 31 wk of experiment, study duration 44 wk, Route [Carcinogen]: Oral, Route [Promoter]: Oral, Species: Rat, Strain/Sex: F344//Male (20/experimental group (10 killed at 31 wk & 10 killed at 44 wk); 15/controls)) is listed as “thyroid: negative for tumors” and the outcome (Carcinogen: N-bis(2-hydroxypropyl)nitrosamine, 53609-64-6, Doses [Carcinogen]: 700 mg/kg, 4 injections administered over 8 wk before promoter, Doses [Promoter]: 0.1% in drinking water from 8 wk to 31 wk of experiment, study duration 44 wk, Route [Carcinogen]: Subcutaneous, Route [Promoter]: Oral, Species: Rat, Strain/Sex: F344//Male (20/experimental group (10 killed at 31 wk & 10 killed at 44 wk); 15/controls)) is listed as “thyroid: adenoma and carcinoma at both 31 and 44 wk”.
In the case of `C1COCCO1`, the outcome (Carcinogen: 7,12-DIMETHYLBENZ(A)ANTHRACENE, Doses [Carcinogen]: TOP, Route [Carcinogen]: DERMAL, Route [Promoter]: DERMAL, Species: MOUSE, Strain/Sex: MALE,FEMALE) is given as “integumentary system (skin)”.
For `C[C@H](CCC(=O)O)[C@H]1CC[C@H]2[C@@H]3[C@H](O)C[C@@H]4C[C@H](O)CC[C@]4(C)[C@H]3CC[C@]12C`, the outcome (Carcinogen: 3-METHYLCHOLANTHRENE, 56-49-5, Doses [Carcinogen]: 3 MG IN BEESWAX PELLET, Doses [Promoter]: 0, 3 MG IN BEESWAX PELLET (STUDY DURATION: 5 MO), Route [Carcinogen]: IMPLANT, Route [Promoter]: IMPLANT, Species: HAMSTER) is listed as “gallbladder: tumor” and the outcome (Doses [Carcinogen]: IR, Route [Carcinogen]: RECTAL, Route [Promoter]: RECTAL, Species: RAT, Strain/Sex: FEMALE) is listed as “colon”.
In the case of `O=c1c(O)c(-c2ccc(O)c(O)c2)oc2cc(O)cc(O)c12`, the outcome (Carcinogen: N-ETHYL-N'-NITRO-N-NITROSOGUANIDINE, 4245-77-6, Doses [Carcinogen]: 0.01% IN DRINKING WATER FOR 4 WK PRIOR TO PROMOTER DOSES, Doses [Promoter]: 2% IN DIET FOR 16 WK (STUDY DURATION: 20 WK), Route [Carcinogen]: ORAL, Route [Promoter]: ORAL, Species: MOUSE, Strain/Sex: C57BL6/MALE) is listed as “duodenum: tumor”.
For `C[S-].C[S-].N#[O+].N#[O+].N#[O+].N#[O+].[Fe].[Fe]`, the outcome (Carcinogen: 7,12-DIMETHYLBENZ[A]ANTHRACENE, 57-97-6, Doses [Carcinogen]: 100 NMOL IN 0.2 ML ACETONE ONCE, Doses [Promoter]: 300 NMOL 2/WK FOR 37 WK (STUDY DURATION: 37 WK), Route [Carcinogen]: DERMAL, Route [Promoter]: DERMAL, Species: MOUSE, Strain/Sex: BALB/FEMALE) is listed as “skin: papilloma or carcinoma”, the outcome (Carcinogen: 7,12-DIMETHYLBENZ[A]ANTHRACENE, 57-97-6, Doses [Carcinogen]: 100 NMOL IN 0.2 ML ACETONE ONCE, Doses [Promoter]: 450 NMOL 2/WK FOR 37 WK (STUDY DURATION: 37 WK), Route [Carcinogen]: DERMAL, Route [Promoter]: DERMAL, Species: MOUSE, Strain/Sex: BALB/FEMALE) is listed as “skin: papilloma or carcinoma” and the outcome (Carcinogen: DIETHYLNITROSAMINE, 55-18-5, Doses [Carcinogen]: 25 MG/WK FOR 2 WK, Doses [Promoter]: 6 MG 2/WK FOR 114-669 D BEGINNING 2 WK POST LAST CARCINOGEN DOSE (STUDY DURATION: 669 D), Route [Carcinogen]: GAVAGE, Route [Promoter]: GAVAGE, Species: RAT, Strain/Sex: WISTAR) is listed as “forestomach: papilloma”.
In the case of `COc1c2occc2cc2ccc(=O)oc12`, the outcome (Carcinogen: 4-(Methylnitrosamino)-1-(3-pyridyl)-1-butanone (NNK), 64091-91-4, Doses [Carcinogen]: Once, 2 mg/0.1 ml saline/mouse on first day, study duration 32 wks, Doses [Carcinogen]: Once, 2 mg/0.1 ml saline/mouse on first day, study duration 32 wks, Doses [Promoter]: 100 ppm in diet from wks 2-16, study duration 32 wks, Route [Carcinogen]: Intraperitoneal, Route [Promoter]: Oral, Species: Mouse, Strain/Sex: A/J/Female) is listed as “lung: adenoma (2.15 vs 1.54, not significant)” and the outcome (Carcinogen: 4-(Methylnitrosamino)-1-(3-pyridyl)-1-butanone (NNK), 64091-91-4, Doses [Carcinogen]: Once, 2 mg/0.1 ml saline/mouse on first day, study duration 32 wks, Doses [Carcinogen]: Once, 2 mg/0.1 ml saline/mouse on first day, study duration 32 wks, Doses [Promoter]: 100 ppm in diet from wks16-32, study duration 32 wks, Route [Carcinogen]: Intraperitoneal, Route [Promoter]: Oral, Species: Mouse, Strain/Sex: A/J/Female) is listed as “lung: adenoma and adenocarcinoma (7.31 vs 6.78, not significant)”.
In the case of `Cc1ccc(O)c(C)c1`, the outcome [1] is listed as “integumentary system (skin)”.
